Laboratory results: patent US9394311B2, “Triazolo compounds as PDE10 inhibitors” (Hoffmann-La Roche Inc., priority 2012, dated 2016)

The compounds below were run against human PDE10A (Homo sapiens (Human), UniProt Q9Y233) (assay: human PDE10A full length Scintillation Proximity Assay (SPA)). Details: PDE10A full length enzyme, 50 nM cGMP / [3H]-cGMP substrate, 20 minutes at room temperature.
Format: biochemical
Experimental: The following test was carried out in order to determine the activity of the compounds of the present invention. PDE10 activity of the compounds of the present invention was determined using a Scintillation Proximity Assay (SPA)-based method similar to the one previously described (Fawcett, L. et al., Proc Natl Acad Sci USA (2000) 97(7):3702-3707).
The human PDE10A full length assay was performed in 96-well micro titer plates. The reaction mixture of 50 μl contained 20 mM HEPES pH=7.5/10 mM MgCl2/0.05 mg/ml BSA (Sigma cat. # A-7906), 50 nM cGMP (Sigma, cat. # G6129) and 50 nM [3H]-cGMP (GE Healthcare, cat. # TRK392 S.A. 13.2 Ci/mmol), 3.75 ng/well PDE10A enzyme (Enzo Life Science, Lausen, Switzerland cat # SE-534) with or without a specific test compound. A range of concentrations of the potential inhibitor was used to generate data for calculating the concentration of inhibitor resulting in 50% of the effect (e.g. IC50, the concentration of the competitor inhibiting PDE10A activity by 50%). Non-specific activity was tested without the enzyme. The reaction was initiated by the addition of the substrate solution (cGMP and [3H]-cGMP) and allowed to progress for 20 minutes at room temperature. The reaction was terminated by adding 25 μl of YSi-SPA scintillation beads (GE Healthcare, cat. # RPNQ0150) in 18 mM zinc sulphate solution (stop reagent). After 1 h under shaking, the plate was centrifuged one minute at 170 g to allow beads to settle. Afterwards, radioactive counts were measured on a Perkin Elmer Top-Count Scintillation plate reader.

human PDE10A, sequence (Q9Y233 other isoform, or with tags, fused parts or gaps): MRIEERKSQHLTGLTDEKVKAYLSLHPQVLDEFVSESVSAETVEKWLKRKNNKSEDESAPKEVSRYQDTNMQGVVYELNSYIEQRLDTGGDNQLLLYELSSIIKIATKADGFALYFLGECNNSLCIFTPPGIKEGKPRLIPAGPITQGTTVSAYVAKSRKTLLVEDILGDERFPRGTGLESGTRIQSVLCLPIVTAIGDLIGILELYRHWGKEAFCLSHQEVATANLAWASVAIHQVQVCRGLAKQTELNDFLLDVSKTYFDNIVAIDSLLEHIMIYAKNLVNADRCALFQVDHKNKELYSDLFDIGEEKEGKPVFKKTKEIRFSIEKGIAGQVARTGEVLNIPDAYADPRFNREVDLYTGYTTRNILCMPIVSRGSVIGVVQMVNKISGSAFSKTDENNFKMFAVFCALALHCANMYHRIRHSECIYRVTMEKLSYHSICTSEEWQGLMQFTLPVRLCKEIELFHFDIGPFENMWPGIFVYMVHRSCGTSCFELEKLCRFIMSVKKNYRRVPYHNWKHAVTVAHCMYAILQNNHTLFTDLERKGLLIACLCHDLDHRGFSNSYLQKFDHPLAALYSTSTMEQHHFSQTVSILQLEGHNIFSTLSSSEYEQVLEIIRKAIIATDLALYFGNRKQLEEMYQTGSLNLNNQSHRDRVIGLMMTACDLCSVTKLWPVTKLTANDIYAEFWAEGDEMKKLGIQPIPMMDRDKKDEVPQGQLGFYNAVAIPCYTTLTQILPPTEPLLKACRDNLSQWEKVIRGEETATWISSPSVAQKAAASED

Q: For `Cc1c(Cl)ccc2nc(CCc3nc(N4CCCC4)n(C)n3)nn12` [Example 28, 6-Chloro-5-methyl-2-[2-(1-methyl-5-pyrrolidin-1-yl-1H-[1,2,4]triazol-3-yl)-ethyl]-[1,2,4]triazolo[1,5-a]pyridine], which IC50 is on record?
A: The IC50 was 2.13 nM.

Q: For `Cc1c(Cl)cc(C#N)c2nc(CCc3nc(N4CCCC4)nn3C)nn12` [Example 79, 6-Chloro-5-methyl-2-[2-(2-methyl-5-pyrrolidin-1-yl-2H-[1,2,4]triazol-3-yl)-ethyl]-[1,2,4]triazolo[1,5-c]pyridine-8-carbonitrile], which IC50 is on record?
A: Its IC50 is 2.22 nM.

Q: For `Cc1c(Cl)cc(C(F)(F)F)c2nc(CCc3nc(N4CCC(F)(F)C4)nn3C)nn12` [Example 88, 6-Chloro-2-{2-[5-(3,3-difluoro-pyrrolidin-1-yl)-2-methyl-2H-[1,2,4]triazol-3-yl]-ethyl}-5-methyl-8-trifluoromethyl-[1,2,4]triazolo[1,5-c]pyridine], which IC50 is on record?
A: Its IC50 is 9.78 nM.

Q: For `Cc1ncc(C)n2nc(CCc3nc(N4CC[C@@H](C)C4)nn3C)nc12` [Example 116, 5,8-Dimethyl-2-{2-[2-methyl-5-((R)-3-methyl-pyrrolidin-1-yl)-2H-[1,2,4]triazol-3-yl]-ethyl}-[1,2,4]triazolo[1,5-a]pyrazine], which IC50 is on record?
A: The IC50 was 8.94 nM.

Q: How did the IC50 turn out when `Cc1c(Br)cc(C(F)(F)F)c2nc(CCc3nc(N4CCCC4)nn3C)nn12` [Example 82, 6-Bromo-5-methyl-2-[2-(2-methyl-5-pyrrolidin-1-yl-2H-[1,2,4]triazol-3-yl)-ethyl]-8-trifluoromethyl-[1,2,4]triazolo[1,5-c]pyridine] was run?
A: The IC50 was 0.48 nM.

Q: With `CCc1cnc(C)n2nc(CCc3nc(N4CCCC4)nn3C)nc12` [Example 75, 8-Ethyl-5-methyl-2-(2-(1-methyl-3-(pyrrolidin-1-yl)-1H-1,2,4-triazol-5-yl)ethyl)-[1,2,4]triazolo[1,5-c]pyrimidine] as the compound, how does the IC50 read?
A: The IC50 was 3.78 nM.

Q: For `Cc1cc(Cl)c(C)n2nc(CCc3nc(N4CCCC4)n(C)n3)nc12` [Example 36, 6-Chloro-5,8-dimethyl-2-(2-(1-methyl-5-(pyrrolidin-1-yl)-1H-1,2,4-triazol-3-yl)ethyl)-[1,2,4]triazolo[1,5-a]pyridine], which IC50 is on record?
A: The IC50 was 0.58 nM.

Q: For `COc1ccc(Cn2nc(C#Cc3nc4cc(Cl)ccn4n3)nc2N2CCCC2)cc1` [Example 19, 7-Chloro-2-[1-(4-methoxy-benzyl)-5-pyrrolidin-1-yl-1H-[1,2,4]triazol-3-ylethynyl]-[1,2,4]triazolo[1,5-a]pyridine], which IC50 is on record?
A: Its IC50 is 477 nM.

Q: Which IC50 does the source give for `Cn1nc(N2CCCC2)nc1CCc1nc2cc(C#N)ccn2n1` [Example 67, 2-(2-(1-Methyl-3-(pyrrolidin-1-yl)-1H-1,2,4-triazol-5-yl)ethyl)-[1,2,4]triazolo[1,5-a]pyridine-7-carbonitrile] here?
A: Its IC50 is 317 nM.

Q: Which IC50 does the source give for `Cc1c(Cl)cc(OCCN2CCOCC2)c2nc(CCc3nc(N4CCCC4)nn3C)nn12` [Example 121, 4-[2-[[6-Chloro-5-methyl-2-[2-(2-methyl-5-pyrrolidin-1-yl-1,2,4-triazol-3-yl)ethyl]-[1,2,4]triazolo[1,5-a]pyridin-8-yl]oxy]ethyl]morpholine] here?
A: The IC50 was 1.37 nM.

Q: With `Cc1ncc(C)n2nc(CCc3nc(N4CC(F)(F)C4)nn3C)nc12` [Example 90, 2-{2-[5-(3,3-Difluoro-azetidin-1-yl)-2-methyl-2H-[1,2,4]triazol-3-yl]-ethyl}-5,8-dimethyl-[1,2,4]triazolo[1,5-a]pyrazine] as the compound, how does the IC50 read?
A: Its IC50 is 475 nM.

Q: For `Cc1cc(Cl)c(C)n2nc([C@H]3C[C@@H]3c3nc(N4CCCC4)nn3C)nc12` [Example 46, 6-Chloro-5,8-dimethyl-2-[(1S,2S)-2-(2-methyl-5-pyrrolidin-1-yl-2H-[1,2,4]triazol-3-yl)-cyclopropyl]-[1,2,4]triazolo[1,5-a]pyridine], which IC50 is on record?
A: Its IC50 is 4.98 nM.

Q: For `Cn1nc(N2CCCC2)nc1CCc1nc2ccc(Cl)cn2n1` [Example 26, 6-Chloro-2-(2-(1-methyl-3-(pyrrolidin-1-yl)-1H-1,2,4-triazol-5-yl)ethyl)-[1,2,4]triazolo[1,5-a]pyridine], which IC50 is on record?
A: Its IC50 is 62.7 nM.

Q: `Cn1nc(N2CCCC2)nc1CCc1nc2ccc(C#N)cn2n1` [Example 53, 2-(2-(1-Methyl-3-(pyrrolidin-1-yl)-1H-1,2,4-triazol-5-yl)ethyl)-[1,2,4]triazolo[1,5-a]pyridine-6-carbonitrile] was tested. Which IC50 did it give?
A: The IC50 was 381 nM.

Q: Which IC50 does the source give for `Cc1ncc(C)n2nc(CCc3nc(N4CCCCC4)nn3C)nc12` [Example 49, 5,8-Dimethyl-2-[2-(2-methyl-5-piperidin-1-yl-2H-[1,2,4]triazol-3-yl)-ethyl]-[1,2,4]triazolo[1,5-a]pyrazine] here?
A: The IC50 was 31.6 nM.

Q: `Cc1ncc(C)n2nc(CCc3nc(N4CCC5(CC5)C4)nn3C)nc12` [Example 92, 2-{2-[5-(5-Aza-spiro[2.4]hept-5-yl)-2-methyl-2H-[1,2,4]triazol-3-yl]-ethyl}-5,8-dimethyl-[1,2,4]triazolo[1,5-a]pyrazine] was tested. Which IC50 did it give?
A: Its IC50 is 13.9 nM.

Q: With `Cc1ncc(C)n2nc(/C=C/c3nc(N(C)C4CC4)nn3C)nc12` [Example 11, Cyclopropyl-{5-[2-(5,8-dimethyl-[1,2,4]triazolo[1,5-a]pyrazin-2-yl)-vinyl]-1-methyl-1H-[1,2,4]triazol-3-yl}-methyl-amine] as the compound, how does the IC50 read?
A: The IC50 was 42.3 nM.

Q: Which IC50 does the source give for `Cc1c(Cl)cc(C(F)(F)F)c2nc(CCc3nc(N4CCCC4)nn3C3CCOCC3)nn12` [Example 122, 6-Chloro-5-methyl-2-(2-(3-(pyrrolidin-1-yl)-1-(tetrahydro-2H-pyran-4-yl)-1H-1,2,4-triazol-5-yl)ethyl)-8-(trifluoromethyl)-[1,2,4]triazolo[1,5-a]pyridine] here?
A: Its IC50 is 0.35 nM.

Q: With `CCn1nc(N2CCCC2)nc1/C=C/c1nc2c(C)ncc(C)n2n1` [Example 1, 2-[2-(2-Ethyl-5-pyrrolidin-1-yl-2H-[1,2,4]triazol-3-yl)-vinyl]-5,8-dimethyl-[1,2,4]triazolo[1,5-a]pyrazine] as the compound, how does the IC50 read?
A: The IC50 was 11.9 nM.

Q: With `CCN(c1nc(CCc2nc3c(C)ncc(C)n3n2)n(C)n1)C1CC1` [Example 60, Cyclopropyl-{5-[2-(5,8-dimethyl-[1,2,4]triazolo[1,5-a]pyrazin-2-yl)-ethyl]-1-methyl-1H-[1,2,4]triazol-3-yl}-ethyl-amine] as the compound, how does the IC50 read?
A: The IC50 was 186 nM.

Q: For `Cc1ncc(C)n2nc(CCc3nc(N4CC(C)C4)nn3C)nc12` [Example 89, 5,8-Dimethyl-2-{2-[2-methyl-5-(3-methyl-azetidin-1-yl)-2H-[1,2,4]triazol-3-yl]-ethyl}-[1,2,4]triazolo[1,5-a]pyrazine], which IC50 is on record?
A: The IC50 was 108 nM.

Q: `Cc1c(Cl)cc(C(C)(C)O)c2nc(CCc3nc(N4CCCC4)nn3C)nn12` [Example 80, 2-{6-Chloro-5-methyl-2-[2-(2-methyl-5-pyrrolidin-1-yl-2H-[1,2,4]triazol-3-yl)-ethyl]-[1,2,4]triazolo[1,5-c]pyridin-8-yl}-propan-2-ol] was tested. Which IC50 did it give?
A: Its IC50 is 76.3 nM.

Q: `CCn1nc(N2CCCC2)nc1/C=C/c1nc2nc(C)cc(C)n2n1` [Example 3, 2-[2-(2-Ethyl-5-pyrrolidin-1-yl-2H-[1,2,4]triazol-3-yl)-vinyl]-5,8-dimethyl-[1,2,4]triazolo[1,5-a]pyrimidine] was tested. Which IC50 did it give?
A: The IC50 was 205 nM.

Q: Which IC50 does the source give for `Cc1c(Cl)cc(C(F)(F)F)c2nc(C#Cc3nc(N4CCCC4)nn3C)nn12` [Example 91, 6-Chloro-5-methyl-2-(2-methyl-5-pyrrolidin-1-yl-2H-[1,2,4]triazol-3-ylethynyl)-8-trifluoromethyl-[1,2,4]triazolo[1,5-a]pyridine] here?
A: Its IC50 is 0.88 nM.

Q: With `Cc1c(C#N)cc(C(F)(F)F)c2nc(CCc3nc(N4CCCC4)nn3C)nn12` [Example 83, 5-Methyl-2-(2-(1-methyl-3-(pyrrolidin-1-yl)-1H-1,2,4-triazol-5-yl)ethyl)-8-(trifluoromethyl)-[1,2,4]triazolo[1,5-a]pyridine-6-carbonitrile] as the compound, how does the IC50 read?
A: Its IC50 is 6.84 nM.

Q: `CCN(C)c1nc(CCc2nc3c(C)ncc(C)n3n2)n(C)n1` [Example 23, {5-[2-(5,8-Dimethyl-[1,2,4]triazolo[1,5-a]pyrazin-2-yl)-ethyl]-1-methyl-1H-[1,2,4]triazol-3-yl}-ethyl-methyl-amine] was tested. Which IC50 did it give?
A: The IC50 was 103 nM.

Q: With `Cc1c(Cl)cc(OC(F)F)c2nc(CCc3nc(N4CCCC4)nn3C)nn12` [Example 95, 6-Chloro-8-difluoromethoxy-5-methyl-2-[2-(2-methyl-5-pyrrolidin-1-yl-2H-[1,2,4]triazol-3-yl)-ethyl]-[1,2,4]triazolo[1,5-c]pyridine] as the compound, how does the IC50 read?
A: The IC50 was 0.23 nM.

Q: Which IC50 does the source give for `Cc1ncc(C)n2nc(CCc3nc(N4CCC(F)(F)C4)nn3C)nc12` [Example 93, 2-{2-[5-(3,3-Difluoro-pyrrolidin-1-yl)-2-methyl-2H-[1,2,4]triazol-3-yl]-ethyl}-5,8-dimethyl-[1,2,4]triazolo[1,5-a]pyrazine] here?
A: The IC50 was 166 nM.

Q: Which IC50 does the source give for `Cc1ncc(C)n2nc(CCc3nc(N4CCCC4)nn3CC(F)(F)F)nc12` [Example 7, 5,8-Dimethyl-2-{2-[5-pyrrolidin-1-yl-2-(2,2,2-trifluoro-ethyl)-2H-[1,2,4]triazol-3-yl]-ethyl}-[1,2,4]triazolo[1,5-a]pyrazine] here?
A: The IC50 was 17 nM.

Q: For `Cc1ncc(C)n2nc(CCc3nc(N4CCC[C@@H]4C)nn3C)nc12` [Example 100, 5,8-Dimethyl-2-{2-[2-methyl-5-((S)-2-methyl-pyrrolidin-1-yl)-2H-[1,2,4]triazol-3-yl]-ethyl}-[1,2,4]triazolo[1,5-a]pyrazine], which IC50 is on record?
A: Its IC50 is 5.5 nM.
